Reference: US12466831B2, “Substituted amino triazolopyrimidine and amino triazolopyrazine adenosine receptor antagonists, pharmaceutical compositions and their use” (Merck Sharp & Dohme LLC, priority 2018, dated 2025)

Legend:
[1] = target: T1, human A2a adenosine receptor (Homo sapiens, UniProt P29274); assay: A2a binding affinity using radioligand binding, Method (A); conditions: Method (A): [3H]SCH58261 filtration binding, membranes expressing human A2a
T1 construct: purchased Perkin Elmer RBHA2aM400UA; host or cells: HEK293 or CHO cells (recombinant expression)
T1 sequence (P29274 whole entry): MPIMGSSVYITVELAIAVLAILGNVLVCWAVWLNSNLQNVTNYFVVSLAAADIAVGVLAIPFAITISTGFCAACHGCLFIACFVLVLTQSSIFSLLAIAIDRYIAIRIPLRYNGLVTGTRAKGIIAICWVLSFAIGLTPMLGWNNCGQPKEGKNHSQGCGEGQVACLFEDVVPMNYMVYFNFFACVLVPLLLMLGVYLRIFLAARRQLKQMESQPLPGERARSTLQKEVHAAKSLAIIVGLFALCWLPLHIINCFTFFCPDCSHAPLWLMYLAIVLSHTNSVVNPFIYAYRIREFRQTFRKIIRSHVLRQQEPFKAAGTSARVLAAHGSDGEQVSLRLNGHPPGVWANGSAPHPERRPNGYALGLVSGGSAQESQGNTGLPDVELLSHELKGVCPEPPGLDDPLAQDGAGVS
Description: (§1) Method (A) describes the procedure used to measure A2a binding affinity using radioligand binding. Method (B) describes the procedure used to measure A2a binding affinity using SPA technology. The method used to measure A2b binding affinity is also described below. The method used to determine the A2a IC50 value reported for each compound in the table is indicated next to the reported value. The A2b IC50 value measured using the A2b binding affinity assay is shown in the table next to the compound under the corresponding A2a value.
The A2a receptor affinity binding assay measured the amount of binding of a tritiated ligand with high affinity for the A2a adenosine receptor to membranes made from HEK293 or CHO cells recombinantly expressing the human A2a adenosine receptor, in the presence of varying concentrations of a compound of the invention. The data were generated using either filtration binding or a homogenous scintillation proximity assay (SPA).
Method (A): Measurement of A2a Binding Affinity Using Radioligand Binding
148 μL (5 μg/mL) membranes (Perkin Elmer, Cat. No. RBHA2aM400UA) and 2 μL compounds of the invention to be tested (test compound) were transferred to individual wells of a 96-well polypropylene assay plate and incubated for 15 to 30 minutes at room temperature. [^3H] SCH58261 ((7-(2-phenylethyl)-5-amino-2-(2-furyl)-pyrazolo-[4,3-e]-1,2,4-triazolo[1,5-c]pyrimidine)) was diluted in assay buffer (50 mM Tris pH 7.4, 10 mM MgCl2, 0.005% Tween20) to a concentration of 4 nM and 50 μL transferred to each well of the assay plate. To define total and non-specific binding, wells containing 1% DMSO and 1 μM ZM241385 (Tocris Bioscience, Cat. No. 1036) respectively, were also included. The assay plate was incubated at room temperature for 60 minutes with agitation. Using a FilterMate Harvester® (Perkin Elmer), the contents of the assay plate were filtered through a UniFilter-96® PEI coated plate (Perkin Elmer Cat. No. 6005274 or 6005277). Filtering was achieved by aspirating the contents of the assay plate for 5 seconds, then washing and aspirating the contents three times with ice-cooled wash buffer (50 mM Tris-HCl pH 7.4, 150 mM NaCl) and allowing the vacuum manifold to dry the plate for 30 seconds. The filter plate was incubated for at least 1 hour at 55° C. and allowed to dry. The bottom of the filter plate was sealed with backing tape. 40 μL Ultima Gold™ (Perkin Elmer, Cat. No. 6013329) was added to each well of the filter plate and the top of the plate was sealed with TopSeal-A PLUS® clear plate seal (Perkin Elmer, Cat. No. 6050185). The plate was incubated for at least 20 minutes, and then the amount of radioactivity remaining in each well was determined using a TopCount® (Perkin Elmer) scintillation counter. After normalization to total and non-specific binding, the percent effect at each compound concentration was calculated. The plot of percent effect versus the log of compound concentration was analyzed electronically using a 4-parameter logistic fit based on the Levenberg-Marquardt algorithm to generate IC50 values.

[2] = target: T2, human A2b adenosine receptor (Homo sapiens, UniProt P29275); assay: A2b binding affinity, radioligand filtration binding assay; conditions: tritiated proprietary A2b antagonist, HEK293 membranes expressing human A2b
T2 construct: purchased Perkin Elmer ES-013-C; host or cells: HEK293 cells recombinantly expressing the receptor; membranes made from them
T2 sequence (P29275 1-332): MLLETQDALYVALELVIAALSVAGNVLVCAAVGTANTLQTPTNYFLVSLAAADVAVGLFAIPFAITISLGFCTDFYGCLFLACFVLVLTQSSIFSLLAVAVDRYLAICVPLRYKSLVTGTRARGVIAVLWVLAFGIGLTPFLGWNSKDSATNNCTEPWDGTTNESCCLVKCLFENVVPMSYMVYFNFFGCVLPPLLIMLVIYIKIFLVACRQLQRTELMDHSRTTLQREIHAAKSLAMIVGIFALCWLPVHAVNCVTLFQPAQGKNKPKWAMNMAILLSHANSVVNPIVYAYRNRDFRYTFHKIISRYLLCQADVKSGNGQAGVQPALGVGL
Description: as §1
Measurement of A2b Binding Affinity
The reported affinity of the compounds of the invention for the human A2b adenosine receptor was determined experimentally using a radioligand filtration binding assay. This assay measures the amount of binding of a tritiated proprietary A2b receptor antagonist, in the presence and absence of a compound of the invention, to membranes made from HEK293 cells recombinantly expressing the human A2b adenosine receptor (Perkin Elmer, Cat. No. ES-013-C).
148 μL (135 μg/mL) membranes and 2 μL test compounds were transferred to individual wells of a 96-well polypropylene assay plate and incubated for 15 to 30 minutes at room temperature with agitation. Tritiated radioligand was diluted to a concentration of 14 nM in assay buffer (phosphate buffered saline without Magnesium and Calcium, pH 7.4; GE Healthcare Life Sciences, Cat. No. SH30256.01) and then 50 μL of the solution were transferred to each well of the assay plate. To define total and non-specific binding, wells containing 1% DMSO and 20 μM N-ethylcarboxamidoadenosine (Tocris Bioscience, Cat. No. 1691) respectively, were also included. The wells of the assay plate were incubated at room temperature for 60 minutes with agitation, then filtered using a FilterMate Harvester® (Perkin Elmer) or similar equipment through a UniFilter-96® PEI coated plate (Perkin Elmer Cat. No. 6005274 or 6005277). Filtering was achieved by aspirating the contents of the assay plate for 5 seconds, then washing and aspirating the contents three times with ice-cooled wash buffer (assay buffer supplemented with 0.0025% Brij58) and allowing the vacuum manifold to dry the plate for 30 seconds. The filter plate was incubated for at least 1 hour at 55° C. and allowed to dry. The bottom of the filter plate was then sealed with backing tape. 40 μL Ultima Gold™ (Perkin Elmer, Cat. No. 6013329) was added to each well of the filter plate and the top of the plate was sealed with TopSeal-A PLUS® clear plate seal (Perkin Elmer, Cat. No. 6050185). The plates were then incubated for at least 20 minutes, and then the amount of radioactivity remaining in each well was determined using a TopCount® (Perkin Elmer) scintillation counter. After normalization to total and non-specific binding, the percent effect at each compound concentration was calculated. The plot of percent effect versus the log of compound concentration was analyzed electronically using a 4-parameter logistic fit based on the Levenberg-Marquardt algorithm to generate IC50 values.

| IC50 [1] [nM] | IC50 [2] [nM] | Compound |
| --- | --- | --- |
| 23.3 | 202 | Cc1c(-c2cccc(F)c2)nc(Br)c2nc([C@H]3C[C@@H]3C(C)(C)O)nn12 (mixture of isomers) [Example 1.2, 2-((1S,2S and 1R,2R)-2-(8-bromo-6-(3-fluorophenyl)-5-methyl-[1,2,4]triazolo[1,5-a]pyrazin-2-yl)cyclopropyl)propan-2-ol] |
| 32.3 | 618 | Cc1c(-c2ncco2)nc(N)n2nc(C3CCN(CC(F)(F)F)C3)nc12 (racemic) [Example 9.1, (R and S)-8-methyl-7-(oxazol-2-yl)-2-(1-(2,2,2-trifluoroethyl)pyrrolidin-3-yl)-[1,2,4]triazolo[1,5-c]pyrimidin-5-amine] |
| 14.8 | 770 | Cc1c(-c2ncco2)nc(N)c2nc([C@@H]3CCCN(c4cnn(C)c4)C3)nn12 (single isomer, unassigned) [Example 2.5-1] |
| 37.3 | 7390 | Cc1c(-c2ncco2)nc(N)c2nc([C@H]3CCCN(c4cnn(C)c4)C3)nn12 (single isomer, unassigned) [Example 2.5-2] |
| 218 | 436 | Cc1c(-c2cc(F)ccc2F)nc(N)c2nc([C@@H]3CCCN(c4cnn(C)c4)C3)nn12 (single isomer, unassigned) [Example 2.6] |
| 1.2 | 261 | Cc1c(-c2ncco2)nc(N)n2nc([C@@H]3CCCN(c4cnn(C(C)C(C)(C)O)c4)C3)nc12 (single isomer, unassigned) [Example 2.10, (R or S)-3-(4-((R)-3-(5-amino-8-methyl-7-(oxazol-2-yl)-[1,2,4]triazolo[1,5-c]pyrimidin-2-yl)piperidin-1-yl)-1H-pyrazol-1-yl)-2-methylbutan-2-ol] |
| 3.2 | 81.6 | Cc1c(-c2ncco2)nc(N)n2nc([C@@H]3CCCN(c4cnn(C(C)C(C)(C)O)c4)C3)nc12 (single isomer, unassigned) [Example 2.11, (S or R)-3-(4-((R)-3-(5-amino-8-methyl-7-(oxazol-2-yl)-[1,2,4]triazolo[1,5-c]pyrimidin-2-yl)piperidin-1-yl)-1H-pyrazol-1-yl)-2-methylbutan-2-ol] |
| 42.6 | 386 | Cc1c(-c2ncco2)nc(N)n2nc(C3CCN(c4cnn(CC(C)(C)O)c4)C3)nc12 (single isomer, unassigned) [Example 3.15-1, (R or S)-1-(4-(3-(5-amino-8-methyl-7-(oxazol-2-yl)-[1,2,4]triazolo[1,5-c]pyrimidin-2-yl)pyrrolidin-1-yl)-1H-pyrazol-1-yl)-2-methylpropan-2-ol] |
| 435 | 9090 | Cc1c(-c2ncco2)nc(N)n2nc(C3CCN(c4cnn(CC(C)(C)O)c4)C3)nc12 (single isomer, unassigned) [Example 3.15-2, (R or S)-1-(4-(3-(5-amino-8-methyl-7-(oxazol-2-yl)-[1,2,4]triazolo[1,5-c]pyrimidin-2-yl)pyrrolidin-1-yl)-1H-pyrazol-1-yl)-2-methylpropan-2-ol] |
| 30.6 | 5550 | Cc1c(-c2ncco2)nc(N)n2nc(C3CCCC(C)(O)C3)nc12 (single isomer, unassigned) [Example 8.2-1, (1-R or S,3-R or S)-3-(5-amino-8-methyl-7-(oxazol-2-yl)-[1,2,4]triazolo[1,5-c]pyrimidin-2-yl)-1-methylcyclohexan-1-ol] |
| 12 |  | Nc1nc(-c2ccccc2)cc2nc([C@@H]3CC(F)(F)CN3)nn12 [Example 2.1, (S)-2-(4,4-difluoropyrrolidin-2-yl)-7-phenyl-[1,2,4]triazolo[1,5-c]pyrimidin-5-amine] |
| 143 |  | Nc1nc(-c2ncco2)cc2nc([C@@H]3CC(F)(F)CN3)nn12 [Example 2.2, (S)-2-(4,4-difluoropyrrolidin-2-yl)-7-(oxazol-2-yl)-[1,2,4]triazolo[1,5-c]pyrimidin-5-amine] |
| 3.7 |  | Cc1c(-c2ncco2)nc(N)n2nc([C@H]3C[C@@H](c4ccc(C(C)(C)O)cn4)C3)nc12 [Example 2.18, 2-(6-((1,3-cis)-3-(5-amino-8-methyl-7-(oxazol-2-yl)-[1,2,4]triazolo[1,5-c]pyrimidin-2-yl)cyclobutyl)pyridin-3-yl)propan-2-ol] |
| 5.2 |  | Cc1c(-c2ncco2)nc(N)n2nc([C@H]3C[C@H](c4ccc(C(C)(C)O)cn4)C3)nc12 [Example 2.19, 2-(6-((1,3-trans)-3-(5-amino-8-methyl-7-(oxazol-2-yl)-[1,2,4]triazolo[1,5-c]pyrimidin-2-yl)cyclobutyl)pyridin-3-yl)propan-2-ol] |
| 9.9 |  | Cc1c(-c2ncco2)nc(N)n2nc([C@H]3C[C@H](c4ccc(C(C)(C)N)cn4)C3)nc12 [Example 2.20, 2-((1,3-trans)-3-(5-(2-aminopropan-2-yl)pyridin-2-yl)cyclobutyl)-8-methyl-7-(oxazol-2-yl)[l,2,4]triazolo[1,5-c]pyrimidin-5-amine] |
| 26.3 |  | Cc1c(-c2ncco2)nc(N)n2nc([C@H]3C[C@@H](c4ccc(C(C)(C)N)cn4)C3)nc12 [Example 2.21, 2-((1,3-cis)-3-(5-(2-aminopropan-2-yl)pyridin-2-yl)cyclobutyl)-8-methyl-7-(oxazol-2-yl)-[1,2,4]triazolo[1,5-c]pyrimidin-5-amine] |
| 14.9 |  | Nc1nc(-c2ccccc2)cc2nc([C@@H]3CC(F)(F)CN3C(=O)C3CC3)nn12 [Example 4.3, (S)-(2-(5-amino-7-phenyl-[1,2,4]triazolo[1,5-c]pyrimidin-2-yl)-4,4-difluoropyrrolidin-1-yl)(cyclopropyl)methanone] |
| 15.7 |  | Cc1c(-c2ncco2)nc(N)n2nc([C@H]3C[C@H](c4ccc(C(C)(C)N)nc4)C3)nc12 [Example 10.6, 2-((1,3-trans)-3-(6-(2-aminopropan-2-yl)pyridin-3-yl)cyclobutyl)-8-methyl-7-(oxazol-2-yl)-[1,2,4]triazolo[1,5-c]pyrimidin-5-amine] |
